Drawing on US20260274892A1, “MACROCYCLIC BROAD SPECTRUM ANTIBIOTICS” (RQx Pharmaceuticals, Inc., priority 2017, published 2026), this text covers MIC for eleven compounds.

The subject of test [1] is Methicillin Resistant Staphylococcus aureus strain USA 200. In words: Minimum inhibitory concentration (MIC), CLSI broth micro-dilution, S. aureus. In kind it is cell-based. The note with it: Staphylococcus aureus, MRSA / USA200; Table 6; MRSA USA 200; cation adjusted Mueller Hinton Broth + 0.002% Tween-80; 35° C., 22 hours. On the procedure: In vitro antimicrobial activity of each compound was determined by measuring minimal inhibitor concentrations (MICs) using the broth micro-dilution technique as approved by the Clinical and Laboratory Standards Institute (CLSI) (Methods for Dilution Antimicrobial Susceptibility Tests for Bacteria that Grow Aerobically; Approved Standard-Eighth Edition. CLSI document M07-A8. Wayne, PA: Clinical and Laboratroy Standards; 2009). Antibacterial activity was measure against two strains of bacteria: a Methicillin Resistant Staphylococcus aureus strain USA 200, (S. aureus) and Escherichia coli ATCC 25922 (E. coli), a clinically relevant Gram-negative strain. Cells were inoculated onto plates of Trypyticase Soy Agar or Luria Agar respectively and grown at 35° C. for 20 hours. Inocula suspensions were prepared by scraping cells into 1 mL of testing media (cation adjusted Mueller Hinton Broth supplemented with 0.002% v/v Tween-80) and diluting to a final OD600nm of 0.01.
Test compounds were prepared in DMSO at a concentration of 10 mg/mL. In protocol 1, the compound stocks were diluted into testing media at a concentration of 64 µg/ml and serial 2-fold dilutions were made in the same media, in 96-well U bottom microtiter dishes, for a total of 10 compound concentrations. In protocol 2, the compound stocks were diluted into testing media at a concentration of 4 µg/mL and serial 2-fold dilutions were made in the same media, in 96-well U bottom microtiter dishes, for a total of 10 compound concentrations. In protocol 3, compound stocks were diluted into testing media at a concentration of 0.5 μg/mL, with serial 2-fold dilutions conducted as described above. In protocol 4, compound stocks were diluted into testing media at a concentration of […], with serial 2-fold dilutions conducted as described above. Inocula suspensions were added to the 2-fold serial dilutions of test compounds to a final density of GD OD600nm of 0.0005 and incubated at 35° C. for 22 hours.
A general note: In broth dilution the organism is exposed to a series of concentrations in liquid medium.

The test system of test [2] is Escherichia coli ATCC 25922. Nature of the test: Minimum inhibitory concentration (MIC), CLSI broth micro-dilution, E. coli. The format is cell-based. The note with it: Escherichia coli, ATCC25922, 22 h, Table 6, cation adjusted Mueller Hinton Broth + 0.002% Tween-80, 35° C. The procedure, abridged: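 Antibacterial potency is measured as MIC by the CLSI broth dilution method. Bacteria at OD600 0.0005 in Tween-80-supplemented cation-adjusted Mueller Hinton broth face ten twofold compound dilutions for 22 h at 35° C.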

One may read the MIC as the lowest concentration found to suppress growth.

Regarding `CCCc1ccc(-c2ccc(C(=O)N[C@@H](CCN)C(=O)N(C)[C@@H]3C(=O)N[C@@H](C)C(=O)N[C@H](C(=O)NCC#N)Cc4ccc(OCCN)c(c4)-c4cc3ccc4OCCN)c(C)n2)cc1` (racemic) [Compound 208, rac-(8S,11S,14S)-3,18-bis(2-aminoethoxy)-N-(cyanomethyl)-11-methyl-14-[methyl-[rac-(2S)-4-amino-2-[[2-methyl-6-(4-propylphenyl)pyridine-3-carbonyl]amino]butanoyl]amino]-10,13-dioxo-9,12-diazatricyclo[13.3.1.12,6]icosa-1(18),2(20),3,5,15(19),16-hexaene-8-carboxamide], the MIC in test [1] stood at 0.017 µM; in test [2] it was 0.14 µM.
Taken in the same sequence, the figures for `CCCCCc1ncc(-c2ccc(C(=O)N[C@@H](CCN)C(=O)N(C)[C@@H]3C(=O)N[C@@H](C)C(=O)N[C@H](C(=O)NCC#N)Cc4ccc(OCCN)c(c4)-c4cc3ccc4OCCN)c(C)n2)cn1` (racemic) [Compound 209, rac-(8S,11S,14S)-3,18-bis(2-aminoethoxy)-N-(cyanomethyl)-11-methyl-14-[methyl-[rac-(2S)-4-amino-2-[[2-methyl-6-(2-pentylpyrimidin-5-yl)pyridine-3-carbonyl]amino]butanoyl]amino]-10,13-dioxo-9,12-diazatricyclo[13.3.1.12,6]icosa-1(18),2(20),3,5,15(19),16-hexaene-8-carboxamide] were 0.26 µM and 2.1 µM.
For `Cc1nc(C#CC(C)(C)C)ccc1C(=O)N[C@@H](CCN)C(=O)N(C)[C@@H]1C(=O)N[C@@H](C)C(=O)N[C@H](C(=O)NCC#N)Cc2ccc(OCCN)c(c2)-c2cc1ccc2OCCN` (racemic) [Compound 213, rac-(8S,11S,14S)-3,18-bis(2-aminoethoxy)-N-(cyanomethyl)-11-methyl-14-[methyl-[rac-(2S)-4-amino-2-[[6-(3,3-dimethylbut-1-ynyl)-2-methyl-pyridine-3-carbonyl]amino]butanoyl]amino]-10,13-dioxo-9,12-diazatricyclo[13.3.1.12,6]icosa-1(18),2(20),3,5,15(19),16-hexaene-8-carboxamide], the MIC in test [1] is 0.28 µM; in test [2] it was 1.1 µM.
As for `Cc1nc(C#CC2CCCCC2)ccc1C(=O)N[C@@H](CCN)C(=O)N(C)[C@@H]1C(=O)N[C@@H](C)C(=O)N[C@H](C(=O)NCC#N)Cc2ccc(OCCN)c(c2)-c2cc1ccc2OCCN` (racemic) [Compound 214, rac-(8S,11S,14S)-3,18-bis(2-aminoethoxy)-N-(cyanomethyl)-11-methyl-14-[methyl-[rac-(2S)-4-amino-2-[[6-(2-cyclohexylethynyl)-2-methyl-pyridine-3-carbonyl]amino]butanoyl]amino]-10,13-dioxo-9,12-diazatricyclo[13.3.1.12,6]icosa-1(18),2(20),3,5,15(19),16-hexaene-8-carboxamide], the MIC in test [1] was determined as 0.034 µM; in test [2], 0.41 µM.
In the case of `Cc1nc(-c2ccc3c(c2)CCCC3)ncc1C(=O)N[C@@H](CCN)C(=O)N(C)[C@@H]1C(=O)N[C@@H](C)C(=O)N[C@H](C(=O)NCC#N)Cc2ccc(OCCN)c(c2)-c2cc1ccc2OCCN` (racemic) [Compound 216, rac-(8S,11S,14S)-3,18-bis(2-aminoethoxy)-N-(cyanomethyl)-11-methyl-14-[methyl-[rac-(2S)-4-amino-2-[(4-methyl-2-tetralin-6-yl-pyrimidine-5-carbonyl)amino]butanoyl]amino]-10,13-dioxo-9,12-diazatricyclo[13.3.1.12,6]icosa-1(18),2(20),3,5,15(19),16-hexaene-8-carboxamide], the MIC in test [1] turned out to be 0.0084 µM; in test [2], 0.2 µM.
Take `Cc1nc(-c2ccc(CC3CCC3)cc2)ncc1C(=O)N[C@@H](CCN)C(=O)N(C)[C@@H]1C(=O)N[C@@H](C)C(=O)N[C@H](C(=O)NCC#N)Cc2ccc(OCCN)c(c2)-c2cc1ccc2OCCN` (racemic) [Compound 217, rac-(8S,11S,14S)-3,18-bis(2-aminoethoxy)-N-(cyanomethyl)-11-methyl-14-[methyl-[rac-(2S)-4-amino-2-[[2-[4-(cyclobutylmethyl)phenyl]-4-methyl-pyrimidine-5-carbonyl]amino]butanoyl]amino]-10,13-dioxo-9,12-diazatricyclo[13.3.1.12,6]icosa-1(18),2(20),3,5,15(19),16-hexaene-8-carboxamide]: the figures for the MIC in test [1] and in test [2] were 0.0082 µM and 0.099 µM, respectively.
Regarding `Cc1nc(-c2ccc(CC3CCCC3)cc2)ncc1C(=O)N[C@@H](CCN)C(=O)N(C)[C@@H]1C(=O)N[C@@H](C)C(=O)N[C@H](C(=O)NCC#N)Cc2ccc(OCCN)c(c2)-c2cc1ccc2OCCN` (racemic) [Compound 218, rac-(8S,11S,14S)-3,18-bis(2-aminoethoxy)-N-(cyanomethyl)-11-methyl-14-[methyl-[rac-(2S)-4-amino-2-[[2-[4-(cyclopentylmethyl)phenyl]-4-methyl-pyrimidine-5-carbonyl]amino]butanoyl]amino]-10,13-dioxo-9,12-diazatricyclo[13.3.1.12,6]icosa-1(18),2(20),3,5,15(19),16-hexaene-8-carboxamide], the MIC came out at 0.012 µM in test [1] and 0.097 µM in test [2].
Regarding `Cc1nc(-c2ccc(C3(C(F)(F)F)CC3)cc2)ncc1C(=O)N[C@@H](CCN)C(=O)N(C)[C@@H]1C(=O)N[C@@H](C)C(=O)N[C@H](C(=O)NCC#N)Cc2ccc(OCCN)c(c2)-c2cc1ccc2OCCN` (racemic) [Compound 219, rac-(8S,11S,14S)-3,18-bis(2-aminoethoxy)-N-(cyanomethyl)-11-methyl-14-[methyl-[rac-(2S)-4-amino-2-[[4-methyl-2-[4-[1-(trifluoromethyl)cyclopropyl]phenyl]pyrimidine-5-carbonyl]amino]butanoyl]amino]-10,13-dioxo-9,12-diazatricyclo[13.3.1.12,6]icosa-1(18),2(20),3,5,15(19),16-hexaene-8-carboxamide], the values for the MIC in test [1] and in test [2] were 0.012 µM and 0.13 µM, respectively.
With `Cc1nc(-c2ccc(CCC(C)C)cc2)ncc1C(=O)N[C@@H](CCN)C(=O)N(C)[C@@H]1C(=O)N[C@@H](C)C(=O)N[C@H](C(=O)NCC#N)Cc2ccc(OCCN)c(c2)-c2cc1ccc2OCCN` (racemic) [Compound 220, rac-(8S,11S,14S)-3,18-bis(2-aminoethoxy)-N-(cyanomethyl)-11-methyl-14-[methyl-[rac-(2S)-4-amino-2-[[2-(4-isopentylphenyl)-4-methyl-pyrimidine-5-carbonyl]amino]butanoyl]amino]-10,13-dioxo-9,12-diazatricyclo[13.3.1.12,6]icosa-1(18),2(20),3,5,15(19),16-hexaene-8-carboxamide], the minimum inhibitory concentration (MIC) in test [1] amounted to 0.0062 µM; in test [2], 0.099 µM.
With `CCc1ccc(-c2ncc(C(=O)N[C@@H](CCN)C(=O)N(C)[C@@H]3C(=O)N[C@@H](C)C(=O)N[C@H](C(=O)NCC#N)Cc4ccc(OCCN)c(c4)-c4cc3ccc4OCCN)c(C)n2)c2ccccc12` (racemic) [Compound 221, rac-(8S,11S,14S)-3,18-bis(2-aminoethoxy)-N-(cyanomethyl)-11-methyl-14-[methyl-[rac-(2S)-4-amino-2-[[2-(4-ethyl-1-naphthyl)-4-methyl-pyrimidine-5-carbonyl]amino]butanoyl]amino]-10,13-dioxo-9,12-diazatricyclo[13.3.1.12,6]icosa-1(18),2(20),3,5,15(19),16-hexaene-8-carboxamide], the figures for the MIC in test [1] and in test [2] were 0.024 µM and 1 µM, respectively.
For the compound `CCCc1ccc(-c2ncc(C(=O)N[C@@H](CCN)C(=O)N(C)[C@@H]3C(=O)N[C@@H](C)C(=O)N[C@H](C(=O)NCC#N)Cc4ccc(OCCN)c(c4)-c4cc3ccc4OCCN)c(C)n2)c(C)c1` (racemic) [Compound 222, rac-(8S,11S,14S)-3,18-bis(2-aminoethoxy)-N-(cyanomethyl)-11-methyl-14-[methyl-[rac-(2S)-4-amino-2-[[4-methyl-2-(2-methyl-4-propyl-phenyl)pyrimidine-5-carbonyl]amino]butanoyl]amino]-10,13-dioxo-9,12-diazatricyclo[13.3.1.12,6]icosa-1(18),2(20),3,5,15(19),16-hexaene-8-carboxamide], the figures for the MIC in test [1] and in test [2] were 0.033 µM and 0.53 µM, respectively.
